# Experimental data: patent US9686985B2, “Fungicide N-cycloalkyl-N-bicyclicmethylene-carboxamide derivatives” (BAYER INTELLECTUAL PROPERTY GMBH, priority 2012, dated 2017)
# Legend:
# Alternaria solani = test: Example C: in vivo preventive test on Alternaria solani (tomato); details: table C2, dose 100 ppm, comparison with WO-2010/086311 compound
# Method: Example C: In Vivo Preventive Test on Alternaria solani (Tomato) [table] To produce a suitable preparation of active compound, 1 part by weight of active compound is mixed with the stated amounts of solvent and emulsifier, and the concentrate is diluted with water to the desired concentration. To test for preventive activity, young plants are sprayed with the preparation of active compound at the stated rate of application. One day after this treatment, the plants are inoculated with an aqueous spore suspension of Alternaria solani. The plants remain for one day in an incubation cabinet at approximately 22° C. and a relative atmospheric humidity of 100%. Then the plants are placed in an incubation cabinet at approximately 20° C. and a relative atmospheric humidity of 96%.
# Pyricularia oryzae = assay type: in vivo; details: table Q; 500 ppm; rice plants; grading 6 days after contamination
# [1] = log P by HPLC on reversed-phase column (EEC Directive 79/831 Annex V.A8); assay type: physicochemical; details: Table 1; HPLC C18, 40° C., 0.1% aqueous formic acid and acetonitrile gradient
# In short: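 Column at 40° C; mobile phases 0.1% aqueous formic acid and acetonitrile, linear gradient 10% to 90% acetonitrile. Calibrated with unbranched alkan-2-ones (3 to 16 carbons) of known log P; values from retention times by linear interpolation between two successive alkanones.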
# Sphaerotheca fuliginea = test: Example B: in vivo preventive test on Sphaerotheca fuliginea (powdery mildew on cucurbits); details: table B; 500 ppm; gherkin plants; grading 12 days after contamination
# Method: Example B: In Vivo Preventive Test on Sphaerotheca fuliginea (Powdery Mildew on Cucurbits) […] Gherkin plants (“Vert petit de Paris” variety), sown in starter cups on a 50/50 peat soil-pozzolana substrate and grown at 24° C., are treated at the Z11 cotyledon stage by spraying with the active ingredient prepared as described above. Plants, used as controls, are treated with the mixture of acetone/tween/DMSO/water not containing the active material. After 24 hours, the plants are contaminated by spraying the cotyledons with an aqueous suspension of Sphaerotheca fuliginea spores (100 000 spores per mL). The spores are collected from infected plants. The contaminated gherkin plants are incubated at about 20° C. and at 70-80% relative humidity. Grading (% of efficacy) is carried out 12 days after the contamination, in comparison with the control plants.
# Uromyces appendiculatus = test: Example G: in vivo preventive test on Uromyces appendiculatus (bean rust); details: bean plants
# Method: Example G: In Vivo Preventive Test on Uromyces appendiculatus (Bean Rust) […] Bean plants (“Saxa” variety), sown in starter cups on a 50/50 peat soil pozzolana substrate and grown at 24° C., are treated at the 2 leaf stage (9 cm height) by spraying with the active ingredient prepared as described above. Plants, used as controls, are treated with the mixture of acetone/tween/DMSO/water not containing the active material. After 24 hours, the plants are contaminated by spraying the leaves with an aqueous suspension of Uromyces appendiculatus spores (150 000 spores per mL). The spores are collected from infected plants and are suspended in water containing 2.5 mL/L of Tween 80 at 10%. The contaminated bean plants are incubated for 24 hours at 20° C. and at 100% relative humidity, and then for 10 days at 20° C. and at 70-80% relative humidity. Grading (% of efficacy) is carried out 11 days after the contamination, in comparison with the control plants.
# Pyrenophora teres = test: Example N: in vivo preventive test on Pyrenophora teres (barley); details: table N; 500 ppm; barley plants; grading 14 days after contamination
# Method: Example N: In Vivo Preventive Test on Pyrenophora teres (Barley) […] Barley plants (“Plaisant” variety), sown in starter cups on a 50/50 peat soil pozzolana substrate and grown at 22° C., are treated at the 1 leaf stage (10 cm height) by spraying with the active ingredient prepared as described above. Plants, used as controls, are treated with the mixture of acetone/tween/DMSO/water not containing the active material. After 24 hours, the plants are contaminated by spraying the leaves with an aqueous suspension of Pyrenophora teres spores (12 000 spores per mL). The spores are collected from a 12-day-old culture. The contaminated barley plants are incubated for 48 hours at 20° C. and at 100% relative humidity, and then for 12 days at 20° C. at 70-80% relative humidity. Grading (% of efficacy) is carried out 14 days after the contamination, in comparison with the control plants.
# Alternaria brassicae = test: Example D: in vivo preventive test on Alternaria brassicae (leaf spot on radish); details: table D; 500 ppm; radish plants; grading 6 days after contamination
# Method: Example D: In Vivo Preventive Test on Alternaria brassicae (Leaf Spot on Radish) […] Radish plants (“Pernod Clair” variety), sown in starter cups on a 50/50 peat soil pozzolana substrate and grown at 17° C., are treated at the cotyledon stage by spraying with the active ingredient prepared as described above. Plants, used as controls, are treated with the mixture of acetone/tween/DMSO/water not containing the active material. After 24 hours, the plants are contaminated by spraying the cotyledons with an aqueous suspension of Alternaria brassicae spores (50 000 spores per mL). The spores are collected from a 15-day-old culture. The contaminated radish plants are incubated at 20° C. and at 100% relative humidity. Grading (% of efficacy) is carried out 6 days after the contamination, in comparison with the control plants.
# Septoria tritici = test: Example L: in vivo preventive test on Septoria tritici (wheat); details: table L; 500 ppm; wheat plants; grading 24 days after contamination
# Method: Example L: In Vivo Preventive Test on Septoria tritici (Wheat) […] Wheat plants (“Scipion” variety), sown in starter cups on a 50/50 peat soil pozzolana substrate and grown at 22° C., are treated at the 1 leaf stage (10 cm height) by spraying with the active ingredient prepared as described above. Plants, used as controls, are treated with the mixture of acetone/tween/DMSO/water not containing the active material. After 24 hours, the plants are contaminated by spraying the leaves with an aqueous suspension of cryopreserved Septoria tritici spores (500 000 spores per mL). The contaminated wheat plants are incubated for 72 hours at 18° C. and at 100% relative humidity, and then for 21 days at 90% relative humidity. Grading (% of efficacy) is carried out 24 days after the contamination, in comparison with the control plants.
# Puccinia recondita = test: Example R: in vivo preventive test on Puccinia recondita (brown rust on wheat); details: table R; 500 ppm; wheat plants; grading 12 days after contamination
# Method: Example R: In Vivo Preventive Test on Puccinia recondita (Brown Rust on Wheat) […] Wheat plants (“Scipion” variety), sown in starter cups on a 50/50 peat soil pozzolana substrate and grown at 22° C., are treated at the 1 leaf stage (10 cm height) by spraying with the active ingredient prepared as described above. Plants, used as controls, are treated with the mixture of acetone/tween/DMSO/water not containing the active material. After 24 hours, the plants are contaminated by spraying the leaves with an aqueous suspension of Puccinia recondita spores (100 000 spores per mL). The spores are collected from an infected plant and are suspended in water containing 2.5 mL/L of Tween 80 at 10%. The contaminated wheat plants are incubated for 24 hours at 20° C. and at 100% relative humidity, and then for 10 days at 20° C. and at 70-80% relative humidity. Grading (% of efficacy) is carried out 12 days after the contamination, in comparison with the control plants.
# Botrytis cinerea = test: Example S: in vivo preventive test on Botrytis cinerea (grey mould); details: table S; 500 ppm; gherkin plants; grading 4 to 5 days after contamination
# Method: Example S: In Vivo Preventive Test on Botrytis cinerea (Grey Mould) […] Gherkin plants (“Vert petit de Paris” variety), sown in starter cups on a 50/50 peat soil pozzolana substrate and grown at 24° C., are treated at the Z11 cotyledon stage by spraying with the active ingredient prepared as described above. Plants, used as controls, are treated with the mixture of acetone/tween/DMSO/water not containing the active material. After 24 hours, the plants are contaminated by spraying the cotyledons with an aqueous suspension of cryopreserved Botrytis cinerea spores (50 000 spores per mL). The spores are suspended in a nutrient solution composed of 10 g/L of PDB, 50 g/L of D-Fructose, 2 g/L of NH4NO3 and 1 g/L of KH2PO4. The contaminated gherkin plants are incubated at 17° C. and at 90% relative humidity. Grading (% of efficacy) is carried out 4 to 5 days after the contamination, in comparison with the control plants.
# [2] = table G1, 500 ppm, grading 11 days after contamination
compound,measurement,setting,value
"Cc1nn(C)c(F)c1C(=O)N(C1CC1)C(C)C1CCCc2ccccc21 (stereo not drawn) [1.2 from WO-2010/086311, N-cyclopropyl-5-fluoro-1,3-dimethyl-N-[1-(1,2,3,4-tetrahydronaphthalen-1-yl)ethyl]-1H-pyrazole-4-carboxamide, reference compound]",Efficacy,Alternaria solani,no protection
same,Efficacy,Alternaria solani; listed as I.2 from WO-2010/086311,0%
Cc1cccc2c1CCC2CN(C(=O)c1c(C(F)F)nn(C)c1F)C1CC1 (stereo not drawn) [I.3],Efficacy,Pyricularia oryzae,97%
same,logP,[1],3.71
same,Efficacy,Sphaerotheca fuliginea,100%
same,Efficacy,Uromyces appendiculatus; [2],100%
same,Efficacy,"Uromyces appendiculatus; table G2, dose 100 ppm",88%
same,Efficacy,"Uromyces appendiculatus; table G2, dose 500 ppm",100%
same,Efficacy,Pyrenophora teres,100%
same,Efficacy,Alternaria brassicae,97%
same,Efficacy,Septoria tritici,100%
same,Efficacy,Puccinia recondita,94%
Cn1nc(C(F)F)c(C(=O)N(CC2CCc3c(F)cccc32)C2CC2)c1Cl (stereo not drawn) [I.8],Efficacy,Pyricularia oryzae,83%
same,logP,[1],3.55
same,Efficacy,Sphaerotheca fuliginea,100%
same,Efficacy,Pyrenophora teres,86%
same,Efficacy,Septoria tritici,71%
same,Efficacy,Puccinia recondita,75%
Cn1nc(C(F)F)c(C(=S)N(CC2CC(C)(C)c3ccccc32)C2CC2)c1F (stereo not drawn) [I.11],logP,[1],4.69
same,Efficacy,Sphaerotheca fuliginea,100%
same,Efficacy,Pyrenophora teres,100%
same,Efficacy,Alternaria brassicae,100%
same,Efficacy,Septoria tritici,100%
same,Efficacy,Puccinia recondita,94%
same,Efficacy,Botrytis cinerea,100%
Cn1nc(C(F)F)c(C(=O)N(CC2CCc3cccc(Cl)c32)C2CC2)c1F (stereo not drawn) [I.14],Efficacy,Pyricularia oryzae,75%
same,logP,[1],3.80
same,Efficacy,Sphaerotheca fuliginea,100%
same,Efficacy,Uromyces appendiculatus; [2],100%
same,Efficacy,"Uromyces appendiculatus; table G2, dose 100 ppm",50%
same,Efficacy,"Uromyces appendiculatus; table G2, dose 500 ppm",100%
same,Efficacy,Pyrenophora teres,93%
same,Efficacy,Alternaria brassicae,100%
same,Efficacy,Septoria tritici,97%
same,Efficacy,Puccinia recondita,81%
Cn1nc(C(F)F)c(C(=O)N(CC2CCc3ccc(C(F)(F)F)cc32)C2CC2)c1Cl (stereo not drawn) [I.16],logP,[1],4.04
same,Efficacy,Sphaerotheca fuliginea,100%
same,Efficacy,Uromyces appendiculatus; [2],100%
same,Efficacy,Septoria tritici,98%
same,Efficacy,Puccinia recondita,88%
same,Efficacy,Botrytis cinerea,100%
Cn1nc(C(F)F)c(C(=O)N(CC2CCc3ccc(C(F)(F)F)cc32)C2CC2)c1F (stereo not drawn) [I.17],logP,[1],3.87
same,Efficacy,Sphaerotheca fuliginea,100%
same,Efficacy,Uromyces appendiculatus; [2],100%
same,Efficacy,Pyrenophora teres,86%
same,Efficacy,Septoria tritici,94%
same,Efficacy,Puccinia recondita,100%
same,Efficacy,Botrytis cinerea,100%
Cn1nc(C(F)F)c(C(=S)N(CC2CCc3c(Cl)cc(Cl)cc32)C2CC2)c1F (stereo not drawn) [I.20],logP,[1],5.22
same,Efficacy,Sphaerotheca fuliginea,100%
same,Efficacy,Uromyces appendiculatus; [2],100%
same,Efficacy,Pyrenophora teres,100%
same,Efficacy,Alternaria brassicae,100%
same,Efficacy,Septoria tritici,97%
same,Efficacy,Puccinia recondita,83%
same,Efficacy,Botrytis cinerea,75%
Cn1nc(C(F)F)c(C(=O)N(CC2CCc3cccc(Br)c32)C2CC2)c1F (stereo not drawn) [I.21],Efficacy,Pyricularia oryzae,83%
same,logP,[1],3.92
same,Efficacy,Sphaerotheca fuliginea,100%
same,Efficacy,Uromyces appendiculatus; [2],98%
same,Efficacy,Pyrenophora teres,79%
same,Efficacy,Alternaria brassicae,100%
same,Efficacy,Septoria tritici,93%
same,Efficacy,Puccinia recondita,88%
CC1CCC(CN(C(=O)c2c(C(F)F)nn(C)c2F)C2CC2)c2ccccc21 (stereo not drawn) [I.24],logP,[1],3.96
same,Efficacy,Sphaerotheca fuliginea,100%
same,Efficacy,Uromyces appendiculatus; [2],100%
same,Efficacy,Pyrenophora teres,100%
same,Efficacy,Alternaria brassicae,100%
same,Efficacy,Septoria tritici,100%
same,Efficacy,Puccinia recondita,94%
same,Efficacy,Botrytis cinerea,100%
Cn1nc(C(F)F)c(C(=O)N(CC2CCCCc3ccccc32)C2CC2)c1F (stereo not drawn) [I.30],logP,[1],3.90
same,Efficacy,Sphaerotheca fuliginea,100%
same,Efficacy,Uromyces appendiculatus; [2],100%
same,Efficacy,Pyrenophora teres,100%
same,Efficacy,Alternaria brassicae,100%
same,Efficacy,Septoria tritici,100%
same,Efficacy,Puccinia recondita,94%
same,Efficacy,Botrytis cinerea,100%
Cn1nc(C(F)F)c(C(=O)N(CC2CCOc3ccccc32)C2CC2)c1F (stereo not drawn) [I.31],logP,[1],3.00
same,Efficacy,Sphaerotheca fuliginea,100%
same,Efficacy,Uromyces appendiculatus; [2],94%
same,Efficacy,Pyrenophora teres,100%
same,Efficacy,Alternaria brassicae,100%
same,Efficacy,Septoria tritici,100%
same,Efficacy,Puccinia recondita,83%
same,Efficacy,Botrytis cinerea,100%
Cn1nc(C(F)F)c(C(=O)N(CC2CCSc3ccc(Cl)cc32)C2CC2)c1F (stereo not drawn) [I.36],logP,[1],3.83
same,Efficacy,Sphaerotheca fuliginea,85%
same,Efficacy,Uromyces appendiculatus; [2],100%
same,Efficacy,Pyrenophora teres,94%
same,Efficacy,Alternaria brassicae,100%
same,Efficacy,Septoria tritici,79%
same,Efficacy,Puccinia recondita,78%
same,Efficacy,Botrytis cinerea,97%
